Experiments:
ob/ob mice = test: Study 4 (Example 2): EREG injected into epididymal iAb fat of ob/ob mice; type: in vivo, mouse
Experimental: 6-week old Ob/Ob male mice, purchased from the Jackson laboratory (n=10), were fed a high fat diet (HF, 45% kcal from fat, D12451, Research Diet Inc., New Brunswick, NJ) for 30 days and then randomly assigned into two groups: • 1) a control group injected with 0.1 mL sterile PBS into both epididymal iAb fat (n=5), and • 2) EREG-treated group injected with 60 ng EREG per epididymal iAb fat depot (n=5). Mice were injected with 0.1 mL sterile PBS, containing 600 ng EREG/mL. These mice were pair fed and individually housed during injections. […] Metabolic measurements were performed as described in 2.5. WAT were collected for protein, mRNA, and histology. Metabolic parameters in study 2.3 and 2.4 were measured by indirect calorimetry (CLAMS, Columbus Instruments, Columbus, OH) at ambient temperature (22° C.) with 12 h light/dark cycles. Animals were fed the same HF diet and water provided ad libitum. Mice were placed individually and allowed to acclimatize in the chambers for 12 h, and O2 consumption, CO2 production, energy expenditure, and locomotor activity were measured for 24 h. Then temperature was changed to 4° C. for 6 h. […] GTT was performed in overnight fasted Ob/Ob mice (study 4, N=5 per group) by intraperitoneal injection of 0.004 mL 25% glucose/g body weight. One week after GTT, an ITT test was performed in same overnight fasted mice. They were injected with a single intraperitoneal insulin dose (1 mU of insulin/g body weight). Blood glucose was measured from mouse tails by One Touch Ultra glucometer (LifeScan, Wayne, PA).

3T3-L1 preadipocytes = test: FD-glucose uptake in 3T3-L1 preadipocytes; type: cell-based, mouse; conditions: for glucose uptake compared to non-stimulated 3T3-L1 preadipocytes: 30 mins, insulin 10 μg/ml, EREG 50 ng/ml, forskolin 4 μg/ml
Experimental: Non-differentiated, 90% confluent 3T3-L1 cells were starved with glucose-deprived medium for 40 min. Then cells were treated in the presence and absence of different concentrations of nanoscaffold #2 and bovine insulin (200 μg/mL), all of reagents dissolved in the same glucose-deprived medium but containing fluorescent-D (FD)-glucose for 80 min. Thereafter, the FD glucose uptake was measured according to manufacturer's instructions (Cayman Chemical, USA, cat #600471). […] Non-differentiated, 90% confluent 3T3-L1 cells treated in the presence and absence of different concentrations of nanoscaffold #2 and bovine insulin (10 μg/mL) or mouse epiregulin (EREG, 0.05 μg/mL) and incubated for 24 h. Then cells were starved with glucose-deprived medium for 40 min and, then incubated with fluorescent-D (FD)-glucose for 80 min. Thereafter, the FD glucose uptake was measured according to manufacturer's instructions (Cayman Chemical, USA, cat #600471). Data are shown as percent of uptake in the presence of insulin (100%).
Non-differentiated, 90% confluent 3T3-L1 cells treated in the presence of bovine insulin (10 μg/mL), mouse epiregulin (EREG, 0.05 μg/mL), or their combinations and incubated for 24 h. Then cells were starved with glucose-deprived medium for 40 min and, then incubated with fluorescent-D (FD)-glucose for 80 min. Thereafter, the FD glucose uptake was measured according to manufacturer's instructions (Cayman Chemical, USA, cat #600471).
Non-differentiated, 90% confluent 3T3-L1 cells were starved with glucose-deprived medium for 50 min. Then cells were treated in the presence and absence of different concentrations of mouse recombinant IGFBP4 with and without nanoscaffold #2 and human insulin (10 μg/mL). All of reagents were dissolved in the same glucose-deprived medium but containing fluorescent-D (FD)-glucose for 90 min. Thereafter, the FD glucose uptake was measured according to manufacturer's instructions (Cayman Chemical, USA, cat #600471).
Glucose uptake assay was performed using glucose uptake cell-based assay kit (Cayman Chemical, Ann Arbor, MI). 3T3-L1 or human preadipocytes were cultured at a density of 5×10^4 per well into a 96-well plate (n=7) in high glucose media and grown overnight. Old cell culture medium was removed the next day and washed with PBS to remove residual glucose. Supplied 2-deoxy-2-[(7-nitro-2,1,3-benzoxadiazol-4-yl)amino]-D-glucose) (2-NBDG) was diluted to 150 μg/mL in DMEM medium without glucose, phenol red, L-glutamine, sodium pyruvate, and HEPES (Life technologies, Grand Island, New York). 100 μL of 2-NBDG glucose free medium with or without recombinant EREG and other treatments was added to the plated cells. After incubating at 37° C. for 30 minutes, cells were washed gently two times with 200 μL of glucose assay buffer. 100 μL of the assay buffer was added to each well and measured for fluorescence at an excitation/emission of 485/535 nm.
Fluorescence glucose uptake (FD-glucose assay) was performed as described PMID: 32065973, using insulin, 1.7 μM and different AACs at concentration 0.1 μM.
FD-glucose uptake in mouse 3T3-L1 preadipocytes (n=8 per treatment) treated with vehicle (Veh; PBS, open bar) or hINS (1.7 μM), mouse leptin (mLep; 12.5 nM, hatched bar), or AAC2 (0.1 μM black bar) in the presence and absence of GLUT1 inhibitor (BAY-876; 10 nM in DMSO). Cells were pre-treated with or without BAY-876 for 40 min and then FD glucose and treatment reagents were added for additional 80 min of incubation. Data (%) was normalized to FD-glucose uptake in control (Veh) 3T3-L1 cells without inhibitor (100%). Student's independent t-test.

[1] = test system: human brain endothelial cells (hBEC); test: FD-glucose uptake in human brain endothelial cells (hBEC); type: cell-based; conditions: hINS 1.7 μM, AAC2 0.1 μM, 50 min; FIG. 42B
Experimental: FD-glucose uptake in human brain endothelial cells (hBEC, n=8 per treatment) treated with vehicle (Veh; PBS, open bar) or hINS (1.7 μM), human leptin (hLep; 62.5 nM, hatched bar), or AAC2 (0.1 μM black bar) in the presence and absence of GLUT1 inhibitor (BAY-876; 10 nM in DMSO). Cells were pre-treated with or without BAY-876 for 40 min and then FD glucose and treatment reagents were added for additional 50 min of incubation. Data (%) was normalized to FD-glucose uptake in control (Veh) hBEC without inhibitor (100%).

GLUT4 = test: GLUT4-GFP translocation in transfected NIH-3T3 cells (confocal microscopy); type: cell-based; conditions: insulin 10 μg/mL, nanoscaffold 10 μM
Excerpt: FIGS. 30A to 30D show translocation of GLUT4 (the major glucose transporter of adipocytes). Non-differentiated NIH-3[…][…]-GFP plasmid ([…] #52872) on Petri-35 dishes with coverslip ([…], cat #[…]-1.5-14-C, USA). […] FIG. 30A: GLUT4 (white vesicles) in cells (arrow) treated with vehicle are mainly in the cytosol. […] All images were taken at 60× magnification.

| Substance | RER during the light cycle (ob/ob mice; EREG-treated vs control) | activity after transition from ambient temperature to the cold (ob/ob mice; EREG-treated vs control) | weight gain (ob/ob mice; after 6 weeks of treatment with EREG) | expression of PPARα target genes and mitochondrial genes in iAb fat (ob/ob mice; between groups) | metabolic rate before and during cold exposure (ob/ob mice; between groups) | response to insulin (ITT) (ob/ob mice; between groups) | glucose tolerance (GTT) (ob/ob mice; compared to non-treated group) | weight of BAT, WAT depot and liver (ob/ob mice; mouse, in vivo) | food intake (ob/ob mice; pair-fed HF diet) | glucose uptake compared to non-stimulated 3T3-L1 preadipocytes (3T3-L1 preadipocytes) | glucose uptake, dose dependence (3T3-L1 preadipocytes; different EREG concentrations) | glucose uptake in preadipocytes (3T3-L1 preadipocytes; hINS 1.7 μM, AAC2 0.1 μM, 80 min, FIG. 42A) | glucose uptake in human blood-brain barrier endothelial cells [1] | GLUT4 translocation (GLUT4) |
| --- | --- | --- | --- | --- | --- | --- | --- | --- | --- | --- | --- | --- | --- | --- |
| EREG: Epiregulin, member of the epidermal growth factor family; recombinant mouse or human protein | significantly lower | higher | reduced | similar | identical | similar | markedly improved | not associated with significant changes | identical | 187% | dose-dependent fashion |  |  |  |
| insulin: insulin (bovine or human) |  |  |  |  |  |  |  |  |  | 174% |  | increase | not | translocated from cytosol to membrane |

From US12697366B2, “Thermogenic compositions and methods” (Ohio State Innovation Foundation, priority 2016, dated 2026)
